The source of these data is patent US20230142542A1, “USE OF SUBSTITUTED 1,2,4-OXADIAZOLES FOR COMBATING PHYTOPATHOGENIC FUNGI” (BASF SE, priority 2020, published 2023).

Molecule `O=C(O)C(F)(F)c1ccc(-c2noc(C(F)(F)F)n2)cc1` [I-2, 2,2-difluoro-2-[4-[5-(trifluoromethyl)-1,2,4-oxadiazol-3-yl]phenyl]acetic acid] showed a melting point of 119 to 121 °C.
